“Also recorded” adds a separate entry of the source.
Key:
[1] = system: human skin; assay: Melanoidin formation in vivo on human skin; conditions: low concentrations of transimination nucleophilic catalyst
Experimental: The application areas were allowed to dry for 5 min and were monitored for 14 days, with photographs taken throughout. The subjects were asked not to bathe for the first 24 h. […] Significant differences in the appearance of the application areas were noticeable during the study, and no adverse reactions of any kind were observed. […] The preliminary results of these experiments are promising, and we plan to expand the study to incorporate a larger, statistically significant panel during phase II SBIR studies.

[2] = target: T1, HbS (Homo sapiens, UniProt P69905); assay: Ex vivo 5HMF/HbS adduct formation in whole blood, AIC vs 5HMF; format: cell-based, BERKγM mouse; conditions: for 5HMF/HbS adduct formed: 30 min at 37° C.
T1 construct: To aliquots of whole blood (100 μL), from the BERKγM mouse; from tissue; host or cells: red cells in whole blood of BERKγM / BERK M transgenic sickle mice (ex vivo incubation, or in vivo after i.v. injection)
Target sequence in this assay (P69905 2-142 limits assumed): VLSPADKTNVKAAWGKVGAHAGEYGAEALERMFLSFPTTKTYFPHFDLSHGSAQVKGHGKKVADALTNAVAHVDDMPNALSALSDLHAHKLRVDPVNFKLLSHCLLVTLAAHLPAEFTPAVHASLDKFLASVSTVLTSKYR

[3] = target: T2, HbA (Homo sapiens, UniProt P69905); assay: 5HMF/HbA Schiff base adduct formation with purified HbA, cation-exchange HPLC; format: binding; conditions: for percent Hb adduct (5HMF/HbA): 30 min at room temperature, HbA 1 mg/ml PBS 7.4
T2 construct: purified HbA (1 mg/ml), from an anonymous human donor; from tissue; host or cells: blood of an anonymous human donor (purified HbA)
T2 sequence (P69905 2-142 limits assumed): as above
T2 sequence (P68871 2-147 partner limits assumed): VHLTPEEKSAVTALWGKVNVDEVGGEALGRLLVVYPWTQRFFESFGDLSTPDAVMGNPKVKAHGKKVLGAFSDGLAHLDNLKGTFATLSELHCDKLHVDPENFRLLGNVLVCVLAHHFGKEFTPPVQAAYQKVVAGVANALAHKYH
Experimental: The isolated imine of Example 1, formed by reacting p-aminobenzoic acid and 5-hydroxymethyl furfural, reacts with hemoglobin at faster rates than 5HMF. The therapeutic imine was synthesized according to Example 1. To a solution of purified HbA (1 mg/ml), from an anonymous human donor, in PBS 7.4 was added equivalent amounts of the therapeutic imine of AIC (1 mM), or 5HMF (1 mM). The HbA solutions show a new peak (˜7.1 min) on cation-exchange HPLC (Table 2) that elutes prior to the unmodified HbA peak (˜8.2 min). The new peak represents the […] formed between 5HMF and HbA and can be quantified by integration of the representative peaks. […] The initial rate of Schiff base adduct formation between the therapeutic imine and HbA is nearly 10 times faster than the rate of formation between 5HMF and HbA, as determined by cation-exchange HPLC at room temperature.

[4] = Stability to air, light and moisture (controlled humidity chamber); format: physicochemical; conditions: 500 mg, light, 22° C., 2 wks
Experimental: The commercial-scale production, distribution and stability of 5HMF, a hygroscopic off-white solid, may be costly as the compound is highly susceptible to degradation upon exposure to air, light and moisture (21). […] To quantify the differences in stability, 500 mg of AIC or 5HMF were placed in a controlled humidity chamber and exposed to light at 22° C. for a period of 2 wks.

[5] = mouse, in vivo; cited from earlier work
[6] = target: T1, HbS; assay: In vivo 5HMF/HbS adduct formation after intravenous injection; set-up: species or system BERK M mice; conditions: 200 mg/kg each
Experimental: BERK M mice were injected (intravenous) with solutions containing either 5HMF (200 mg/kg) or 5HMF (200 mg/kg) and the sodium salt of PABA (200 mg/kg). […] To assess of 5HMF/HbS adduct formation, aliquots of blood were taken at 10 and 30 min, and immediately washed, lysed and subjected to HPLC as previously described.
Target sequence in this assay (P69905 2-142): as the sequence (P69905 2-142 limits assumed) above

[7] = target: T1, HbS; assay: Ex vivo 5HMF/HbS adduct formation in whole blood, PABA/5HMF mixtures; format: cell-based, BERKγM transgenic mouse; conditions: for 5HMF/HbS adduct formed: whole blood
Experimental: Studies were initiated to explore the impact of mixing equimolar concentrations of PABA and 5HMF on the rate of 5HMF/HbS adduct formation in whole blood from a BERKγM transgenic mouse. To aliquots of whole blood (100 μL) was added either 5HMF (2 mM or 5 mM), the sodium salt of PABA (2 mM or 5 mM), or equimolar concentrations of PABA/5HMF (2 mM or 5 mM). […] The rate enhancements are not optimized in these experiments, and additional experiments to account for the differences in rates of transport across the RBC membrane will be performed during Phase II SBIR studies.
Target sequence in this assay (P69905 2-142): as the sequence (P69905 2-142 limits assumed) above

[8] = system: sickle cells; conditions: in vitro, high concentrations of 5HMF; cited from earlier work
[9] = target: hemoglobin (Homo sapiens, UniProt P69905); assay: Oxygen equilibrium curves of hemoglobin solutions (Hemox Analyzer); format: biochemical; conditions: for n50 (hill coefficient) / ΔP50 (%) / P50: no PABA
hemoglobin, sequence (P69905 2-142 limits assumed): as above
hemoglobin, sequence (P68871 2-147 partner limits assumed): as the sequence (P68871 2-147 partner limits assumed) above
Experimental: The oxygen equilibrium curves (OEC) of hemoglobin (1 mg/ml) in phosphate buffer saline pH 7.4 containing 100 mM, 10 mM or 1 mM of the sodium salt of p-aminobenzoate (Sigma) were determined with a Hemox Analyzer (TCS Scientific Corp.). Hemoglobin solutions were incubated at 37° C. for 1 h, in the presence (+) or absence (−) of each compound, as specified in Table 1.

[10] = Behaviour and toxicity after intravenous injection
[11] = Melanoidin formation in vitro in glycine/DHA solutions; conditions: glycine (6%) and DHA (6%), 32° C.
Experimental: Solutions of glycine (6%) and DHA (6%) in 100 mM NH4OAc buffer pH 5.5 were incubated in the presence (+) and absence (−) of the sodium salt of PABA (1%) at 32° C.

[12] = humans; cited from earlier work
[13] = system: T-cell surface amines; assay: Competitive covalent ligation assay, Tucaresol/T-cell adduct formation (flow cytometry); format: cell-based, Balb/c male mice; conditions: 500 μM Tucaresol and/or 1 mM PABA, 30 min, 37° C.
Source text: The central hypothesis of our approach involves utilizing PABA to increase the rate of Schiff base formation between Tucaresol and T-cells in order to minimize the concentration of Tucaresol required for efficacy. We used an established competitive covalent ligation assay (2) to examine the influence of PABA on the rate and degree of Schiff base-adduct formation between Tucaresol and T-cells isolated from the spleens of Balb/c male mice. In this assay, the degree of Tucaresol/T-cell adduct formation is inversely proportional to the mean fluorescence intensity (as visualized by ligation with S-NHS-biotin and FITC-avidin). T-cells were incubated for 30 min with 500 μM Tucaresol only (blue column, FIG. 5), 1 mM PABA only (orange column, FIG. 5) or a mixture of 500 μM Tucaresol and 1 mM PABA (red column, FIG. 5) at 37° C. After 30 min, the reducing agent NaCNBH3 was added to selectively reduce Schiff base adducts (chemically trapping the Tucaresol/T-cell adduct). Washed cells were exposed for 1 h to 12.5 μM S-NHS-biotin (Pierce Rockford, Ill.) to ligate unreacted free surface amino groups. After washing, cells were exposed to excess fluorescent avidin (FITC-avidin) (Pierce), fixed and visualized using flow cytometry.

[14] = system: HIV-positive patients; conditions: cited from earlier work

CCC=CCCOC(=O)c1ccccc1N [3-hexen-1-yl anthranilate]
rate at which melanoidin formation occurs on human skin [1]: significantly increase the rate

O=C(O)c1ccc(/N=C/c2ccc(CO)o2)cc1 [AIC, 4-((5-(hydroxymethyl)furan-2-yl)methyleneamino)benzoic acid]
5HMF/HbS adduct formed ([2]; 5 mM, whole blood): 50%
rate of 5HMF/HbS adduct formation vs 5HMF (in words) ([2]; 5 mM, whole blood, initial rate measured after 10 min): significantly faster; also recorded: significantly enhanced rates
erythrocyte membrane permeation ([2]; whole blood, 5 mM): permeates the erythrocyte membrane
rate of 5HMF/HbA adduct formation vs 5HMF (in words) ([3]; 1 mM AIC or 1 mM 5HMF): significantly enhanced rates
percent Hb adduct (5HMF/HbA) ([3]; 1 mM): ~32%
initial rate of Schiff base adduct formation with HbA relative to 5HMF ([3]; 1 mM, room temperature): ~10 times
chemical change by 1HNMR spectra and HPLC chromatogram on storage [4]: no changes
color change on storage [4]: did not exhibit a noticeable color change

O=Cc1ccc(CO)o1 [Example 5HMF, 5-hydroxymethyl-2-furfural]
survival time of mice exposed to severe hypoxia [5]: prolonged the survival time
5HMF/HbS adduct formed ([2]; 5 mM, whole blood): 27%
percent Hb adduct (5HMF/HbA) ([3]; 1 mM): 6%
5HMF/HbS adduct ([6]; blood taken at 10 min): 5.1%
5HMF/HbS adduct ([6]; blood taken at 30 min): 4.1%
5HMF/HbS adduct formed ([7]; 2 mM (equimolar for mixture), 37° C.): 23%
5HMF/HbS adduct formed ([7]; 5 mM (equimolar for mixture), 30 minutes at 37° C.): 40%
chemical change by 1HNMR spectra and HPLC chromatogram on storage [4]: After 3 days, the 5HMF sample has undergone significant chemical changes
color change on storage [4]: becomes yellow after 24 h
hypoxia-induced formation of sickle cells [8]: largely inhibited
n50 (hill coefficient) ([9]; Exp A: 1 mM 5HMF, 1 h 37° C.): 2.50
ΔP50 (%) ([9]; Exp A: 1 mM 5HMF, 1 h 37° C., vs control P50): 7.53%
P50 ([9]; Exp A: 1 mM 5HMF, Hb 1 mg/ml PBS pH 7.4, 1 h 37° C.): 14.00 mmHg
P50 ([9]; Exp E: 3 mM 5HMF, 1 h 37° C.): 8.21 mmHg
n50 (hill coefficient) ([9]; Exp E: 3 mM 5HMF, 1 h 37° C.): 1.73
ΔP50 (%) ([9]; Exp E: 3 mM 5HMF, 1 h 37° C.): 45.78%
P50 ([9]; Exp F: 5 mM 5HMF, 1 h 37° C.): 5.72 mmHg
n50 (hill coefficient) ([9]; Exp F: 5 mM 5HMF, 1 h 37° C.): 1.91
ΔP50 (%) ([9]; Exp F: 5 mM 5HMF, 1 h 37° C.): 62.22%
behavior of mice after injection ([10]; 200 mg/kg, intravenous): became lethargic and exhibited noticeable changes in behavior
convulsion and death ([10]; higher concentrations of 5HMF (300-500 mg/kg)): caused mice to convulse and die

CC1CCC(C(C)C)C(OC(=O)c2ccccc2N)C1 (stereo not drawn) [Menthyl-o-aminobenzoate]
rate at which melanoidin formation occurs on human skin [1]: significantly increase the rate

Nc1ccccc1C(=O)O [OABA, o-aminobenzoic acid]
rate at which melanoidin formation occurs on human skin [1]: significantly increase the rate

Nc1ccc(C(=O)O)cc1 [PABA, p-aminobenzoic acid]
rate at which melanoidin formation occurs on human skin [1]: significantly increase the rate
rate of darkening of solutions ([11]; 100 mM NH4OAc pH 5.5, 1% PABA sodium salt, vs no PABA): darkened at faster rates
change of UV-Vis spectrum ([11]; 1% PABA): changed more rapidly
new adduct peak by HPLC ([2]; PABA only negative control): did not show a new peak
new adduct peak by HPLC ([3]; PABA only control): did not show a new peak
daily doses with no reported side effects [12]: below 12 grams
amount of 5HMF/HbS adduct formed in the presence of equimolar PABA (in words) ([7]; 2 mM or 5 mM 5HMF with equimolar PABA, FIG. 2): significantly increased
adduct formation ([7]; PABA only control (2 mM or 5 mM)): did not result in any adduct formation
shift of OEC / change in P50 value vs Hb control ([9]; 100 mM, 10 mM or 1 mM PABA, no 5HMF): did not shift the OEC or cause a change in the P50 value
mean fluorescence intensity of T-cells (inversely proportional to Tucaresol/T-cell adduct formation) [13]: did not exhibit a change in mean fluorescent intensity

O=Cc1c(O)cccc1OCc1ccc(C(=O)O)cc1 [Tucaresol, 4(2-formyl-3-hydroxy-phenoxymethyl) benzoic acid]
CD4+ counts ([14]; HIV-positive patients): increase in CD4+ counts
HIV viraemia ([14]; HIV-positive patients): unaffected
Tucaresol-related serious adverse events (patients) ([14]; after the first dose): 2/21

CCCCOC(=O)c1ccccc1N [butyl anthranilate]
rate at which melanoidin formation occurs on human skin [1]: significantly increase the rate

CCOC(=O)c1ccccc1N [ethyl anthranilate]
rate at which melanoidin formation occurs on human skin [1]: significantly increase the rate

COC(=O)c1ccccc1N [methyl anthranilate]
rate at which melanoidin formation occurs on human skin [1]: significantly increase the rate

Source: patent publication US9365532B1, “Synthesis, composition and use of novel therapeutic and cosmetic Schiff base products formed by reaction of a carbonyl containing moeity with a transimination nucleophilic catalyst and the use of transimination nucleophilic catalysts to increase the rate at which carbonyl containing therapeutic and …” (Nanometics, LLC., priority 2011, dated 2016)
